Test results published in US7695930B2, “Method for the detection, identification and/or quantification of microoganisms with peptidase activity using phenoxazinone derivatives as enzyme substrates” (Biomerieux, priority 2003, dated 2010).

Tests used:
Type in all cases: cell-based
Settings in all cases: 50 mg/l
Enterobacter cloaccae = test: Leucine-peptidase detection on agar medium (Example 11)
Protocol: (§1) The detection medium was prepared by mixing 1.4 g of biogelytone (bioMérieux), 0.84 g of meat extract (bioMérieux), 2.24 g of NaCl (Merck), 280 μl of a solution of IPTG (isopropylthio-β-D-galactopyranoside, BIOSYNTH) in water (concentration 10 g/l) and 4.2 g of European agar (bioMérieux).
(§2) The substrate of the invention obtained in Example 2, in which the amino acid is leucine (leucine-9-aminobenzo[a]phenoxazin-5-one or Leu-ABP), or else a substrate of the prior art, which is leucine-aminomethylcoumarin (Leu-AMC, BACHEM), was then added in the following way: 280 ml of osmosed water were added to the medium, and the mixture was melted in a waterbath at 100° C. The mixture was autoclaved for 15 min at 121° C. and cooled to 50° C. in a waterbath.
(§3) The medium was then poured into Petri dishes.
(§4) The coloration of these colonies, the diffusion, and also the intensity of this coloration were noted.
(§5) The results were expressed as intensity of coloration using an arbitrary scale ranging from 0 to 4 as a basis and also as diffusion also using an arbitrary scale ranging from 0 to 4 as a basis.

Staphylococcus aureus = test: as above
Protocol: as §1, §2, §3, §4, §5

Enterococcus faecalis = test: as above
Protocol: as §1, §2, §3, §4, §5

Pseudomonas aeruginosa = test: as above
Protocol: as §1, §2, §3, §4, §5

Candida albicans = test: as above
Protocol: as §1, §2, §3, §4, §5

Serratia marcescens = test: as above
Protocol: as §1, §2, §3, §4, §5

Klebsellia pneumoniae = test: as above
Protocol: as §1, §2, §3, §4, §5

Citrobacter freundii = test: as above
Protocol: as §1, §2, §3, §4, §5

Escherichia coli = test: as above
Protocol: as §1, §2, §3, §4, §5

[1] = system: Pseudomonas aerigunosa (NCTC 10038); test: Alanine peptidase detection, substrates with one to three amino acids (Example 15); design: key to color of the colony: R=pink; RP=pale pink; I=colorless
Protocol: (§6) 1000 ml of Columbia medium was melted in a waterbath at 100° C. and autoclaved at 121° C. for 15 min. It was then cooled to 50° C. in a waterbath.
(§7) This medium was separated into 5 flasks of 200 ml, and then, added at 50° C., as substrates, was that of Example 2 for which A is: • medium 1: L-alanine (L-alanine-9-aminobenzo[a]phenoxazin-5-one or A-ABP), • medium 2: L-alanine-L-alanine (L-alanine-L-alanine-9-aminobenzo-[a]phenoxazin-5-one or AA-ABP), • medium 3: L-alanine-L-alanine-L-alanine (L-alanine-L-alanine-L-alanine-9-aminobenzo[a]phenoxazin-5-one or AAA-ABP), • medium 4: L-alanine-glycine (L-alanine-glycine-9-aminobenzo[a]phenoxazin-5-one or AG-ABP), and • medium 5: glycine-L-alanine (glycine-L-alanine-9-aminobenzo[a]phenoxazin-5-one or GA-ABP), each substrate being solubilized in DMSO and used at a final concentration of 50 mg/l.
as §3
(§8) Nine microorganism strains derived from the Applicant's collection, suspended in physiological saline, were seeded in colonies on the media prepared in point 15.1 above according to a multipoint inoculation in a proportion of 15 000 cfu/spot. The dishes were incubated at 37° C. for 48 hours. The colonies formed were examined visually after incubation for 24 and 48 hours.
(§9) The results are expressed in Tables 7 and 8 hereinafter according to the rules and the nomenclature stated in paragraph 11.3 and where R=pink, RP=pale pink and I=colorless.

[2] = system: Escherichia coli (NCTC 10418); test: as above; design: key to color of the colony: R=pink; RP=pale pink; I=colorless
Protocol: as §6, §7, §3, §8, §9

[3] = system: Acinetobacter baumannii (ATCC 19606); test: as above; design: key to color of the colony: R=pink; RP=pale pink; I=colorless
Protocol: as §6, §7, §3, §8, §9

[4] = system: Enterobacter clocae (NCTC 11936); test: as above; design: key to color of the colony: R=pink; RP=pale pink; I=colorless
Protocol: as §6, §7, §3, §8, §9

[5] = system: Micrococcus luteus (NCTC611); test: as above; design: key to color of the colony: R=pink; RP=pale pink; I=colorless
Protocol: as §6, §7, §3, §8, §9

[6] = system: Listeria monocytogenes (NCTC 11994); test: as above; design: key to color of the colony: R=pink; RP=pale pink; I=colorless
Protocol: as §6, §7, §3, §8, §9

[7] = system: Staphylococcus epidermis (NCTC 11047); test: as above; design: key to color of the colony: R=pink; RP=pale pink; I=colorless
Protocol: as §6, §7, §3, §8, §9

[8] = system: Staphylococcus aureus (NCTC 6571); test: as above; design: key to color of the colony: R=pink; RP=pale pink; I=colorless
Protocol: as §6, §7, §3, §8, §9

## Cc1cc(=O)oc2cc(NC(=O)[C@@H](N)CC(C)C)ccc12 [Leu-AMC, leucine-aminomethylcoumarin, reference compound]
Enterobacter cloaccae; 24 h
  growth diameter: 0.8 mm
  intensity of coloration, scale 0 to 4: 3
Enterobacter cloaccae; 48 h
  growth diameter: 0.8 mm
  intensity of coloration, scale 0 to 4: 3
Staphylococcus aureus; 24 h
  growth diameter: 1.7 mm
  intensity of coloration, scale 0 to 4: 2.5
Staphylococcus aureus; 48 h
  growth diameter: 1.7 mm
  intensity of coloration, scale 0 to 4: 3
Enterococcus faecalis; 24 h
  growth diameter: 0.4 mm
  intensity of coloration, scale 0 to 4: 0.5
Enterococcus faecalis; 48 h
  growth diameter: 0.4 mm
  intensity of coloration, scale 0 to 4: 1.5
Pseudomonas aeruginosa; 24 h
  growth diameter: 2 mm
  intensity of coloration, scale 0 to 4: 1
Pseudomonas aeruginosa; 48 h
  growth diameter: 2 mm
  intensity of coloration, scale 0 to 4: 3
Candida albicans; 24 h
  growth diameter: 0.4 mm
  intensity of coloration, scale 0 to 4: 0.25
Candida albicans; 48 h
  growth diameter: 0.5 mm
  intensity of coloration, scale 0 to 4: 1.5
Serratia marcescens; 24 h
  growth diameter: 0.5 mm
  intensity of coloration, scale 0 to 4: 2
Serratia marcescens; 48 h
  growth diameter: 0.7 mm
  intensity of coloration, scale 0 to 4: 3
Klebsellia pneumoniae; 24 h
  growth diameter: 1.8 mm
  intensity of coloration, scale 0 to 4: 3
Klebsellia pneumoniae; 48 h
  growth diameter: 1.8 mm
  intensity of coloration, scale 0 to 4: 3
Citrobacter freundii; 24 h
  growth diameter: 0.8 mm
  intensity of coloration, scale 0 to 4: 3
Citrobacter freundii; 48 h
  growth diameter: 1 mm
  intensity of coloration, scale 0 to 4: 3
Escherichia coli; 24 h
  growth diameter: 1.8 mm
  intensity of coloration, scale 0 to 4: 3
Escherichia coli; 48 h
  growth diameter: 1.8 mm
  intensity of coloration, scale 0 to 4: 3

## L-alanine-glycine-9-aminobenzo[a]phenoxazin-5-one [AG-ABP]
[1]; 24 h
  color of the colony: RP
  growth diameter: 3 mm
[1]; 48 h
  color of the colony: R
  growth diameter: 3 mm
[2]; 24 h
  color of the colony: R
  growth diameter: 3 mm
[2]; 48 h
  color of the colony: R
  growth diameter: 3 mm
[3]; 24 h
  color of the colony: RP
  growth diameter: 3 mm
[3]; 48 h
  color of the colony: R
  growth diameter: 3 mm
[4]; 24 h
  color of the colony: R
  growth diameter: 3 mm
[4]; 48 h
  color of the colony: R
  growth diameter: 3 mm
[5]; 24 h
  color of the colony: I
  growth diameter: 1 mm
[5]; 48 h
  color of the colony: R
  growth diameter: 3 mm
[6]; 24 h
  color of the colony: I
  growth diameter: 2 mm
[6]; 48 h
  color of the colony: I
  growth diameter: 3 mm
[7]; 24 h
  color of the colony: I
  growth diameter: 3 mm
[7]; 48 h
  color of the colony: I
  growth diameter: 3 mm
[8]; 24 h
  color of the colony: I
  growth diameter: 3 mm
[8]; 48 h
  color of the colony: I
  growth diameter: 3 mm

## L-alanine-L-alanine-9-aminobenzo-[a]phenoxazin-5-one [AA-ABP]
[1]; 24 h
  color of the colony: R
  growth diameter: 3 mm
[1]; 48 h
  color of the colony: R
  growth diameter: 3 mm
[2]; 24 h
  color of the colony: R
  growth diameter: 3 mm
[2]; 48 h
  color of the colony: R
  growth diameter: 3 mm
[3]; 24 h
  color of the colony: R
  growth diameter: 3 mm
[3]; 48 h
  color of the colony: R
  growth diameter: 3 mm
[4]; 24 h
  color of the colony: R
  growth diameter: 3 mm
[4]; 48 h
  color of the colony: R
  growth diameter: 3 mm
[5]; 24 h
  growth diameter: 0 mm
[5]; 48 h
  growth diameter: 0 mm
[6]; 24 h
  color of the colony: R
  growth diameter: 2 mm
[6]; 48 h
  color of the colony: R
  growth diameter: 2 mm
[7]; 24 h
  color of the colony: I
  growth diameter: 2 mm
[7]; 48 h
  color of the colony: I
  growth diameter: 2 mm
[8]; 24 h
  color of the colony: I
  growth diameter: 3 mm
[8]; 48 h
  color of the colony: I
  growth diameter: 2 mm

## glycine-L-alanine-9-aminobenzo[a]phenoxazin-5-one [GA-ABP]
[1]; 24 h
  color of the colony: RP
  growth diameter: 3 mm
[1]; 48 h
  color of the colony: R
  growth diameter: 3 mm
[2]; 24 h
  color of the colony: R
  growth diameter: 3 mm
[2]; 48 h
  color of the colony: R
  growth diameter: 3 mm
[3]; 24 h
  color of the colony: R
  growth diameter: 3 mm
[3]; 48 h
  color of the colony: R
  growth diameter: 3 mm
[4]; 24 h
  color of the colony: R
  growth diameter: 3 mm
[4]; 48 h
  color of the colony: R
  growth diameter: 3 mm
[5]; 24 h
  growth diameter: 0 mm
[5]; 48 h
  growth diameter: 0 mm
[6]; 24 h
  color of the colony: I
  growth diameter: 2 mm
[6]; 48 h
  color of the colony: R
  growth diameter: 2 mm
[7]; 24 h
  color of the colony: I
  growth diameter: 1 mm
[7]; 48 h
  color of the colony: I
  growth diameter: 2 mm
[8]; 24 h
  color of the colony: I
  growth diameter: 3 mm
[8]; 48 h
  color of the colony: I
  growth diameter: 3 mm

## L-alanine-L-alanine-L-alanine-9-aminobenzo[a]phenoxazin-5-one [AAA-ABP]
[1]; 24 h
  color of the colony: R
  growth diameter: 3 mm
[1]; 48 h
  color of the colony: R
  growth diameter: 3 mm
[2]; 24 h
  color of the colony: R
  growth diameter: 3 mm
[2]; 48 h
  color of the colony: R
  growth diameter: 3 mm
[3]; 24 h
  color of the colony: R
  growth diameter: 3 mm
[3]; 48 h
  color of the colony: R
  growth diameter: 3 mm
[4]; 24 h
  color of the colony: R
  growth diameter: 3 mm
[4]; 48 h
  color of the colony: R
  growth diameter: 3 mm
[5]; 24 h
  color of the colony: R
  growth diameter: 1 mm
[5]; 48 h
  color of the colony: R
  growth diameter: 3 mm
[6]; 24 h
  color of the colony: R
  growth diameter: 2 mm
[6]; 48 h
  color of the colony: R
  growth diameter: 2 mm
[7]; 24 h
  color of the colony: I
  growth diameter: 2 mm
[7]; 48 h
  color of the colony: I
  growth diameter: 2 mm
[8]; 24 h
  color of the colony: I
  growth diameter: 3 mm
[8]; 48 h
  color of the colony: I
  growth diameter: 3 mm
